{"source": "patent US12329769B2", "about": "“Use of Abelmoschi corolla extract in preparation of drug for treating fibrosis” (SUZHONG PHARMACEUTICAL GROUP CO., LTD., priority 2019, dated 2025)", "key": {"[1]": {"system": "fibrosis of NRK-49F cells stimulated by TGF-β1", "test": "In-vitro anti-fibrosis effect: WB of Collagen I and α-SMA in NRK-49F cells stimulated by TGF-β1", "assay_type": "cell-based", "conditions": "30 μM monomer constituent, added 30 minutes before TGF-β1, co-incubation 24 hours, FIG. 3", "experimental": "NRK-49F cells were inoculated into a 6-well plate at a density of 5×10^5 cells/well, and cultured in a DMEM medium containing 10% fetal bovine serum for 16 hours. After adding 50 μg/mL Abelmoschi corolla extract and each elution fraction constituent of macroporous resin and 30 μM monomer constituent of Abelmoschus manihot for 30 minutes, 10 mg/mL TGF-β1 was added. After co-incubation for 24 hours, cell proteins were extracted for a WB experiment to detect expression of Collagen I and α-SMA proteins, so as to judge the in-vitro anti-fibrosis effects of the Abelmoschi corolla extract and each elution constituent of macroporous resin and the monomer constituent."}, "NRK-49F cells": {"system": "NRK-49F cells", "test": "MTT test of effect on activity of NRK-49F cells", "assay_type": "cell-based", "conditions": "30 μM monomer constituent, co-incubation 24 hours", "procedure": "NRK-49F cells were inoculated into a 96-well plate at a density of 5×10^3 cells/well, and cultured in a DMEM medium containing 10% fetal bovine serum for 16 hours. 50 μg/mL gradient elution constituent solution of macroporous resin of an Abelmoschi corolla extract or 30 μM of monomer constituents of the Abelmoschi corolla extract were added. After co-incubation for 24 hours, an original culture solution was removed, and 100 μL of 0.5 mg/mL MTT was added into each well. After incubation in an incubator for 4 hours, a staining solution was removed, and 150 μL of DMSO was added for detection by a microplate reader."}}}
{"smiles": "O=c1c(O)c(-c2ccc(O)c(O)c2)oc2cc(O)cc(O)c12", "note": "[compound 20, Quercetin]", "values": [{"measurement": "expression of Collagen I protein (WB)", "setting": "[1]", "value": "significantly inhibit"}, {"measurement": "expression of α-SMA protein (WB)", "setting": "[1]", "value": "significantly inhibit"}]}
{"smiles": "O=C(O)C1OC(Oc2c(O)cc(O)c3c(=O)c(OC4OC(CO)C(O)C(O)C4O)c(-c4ccc(O)c(O)c4)oc23)C(O)C(O)C1O", "note": "[compound 6, Gossypetin-3-O-β-D-glucose-8-O-β-D-glucuronide]", "values": [{"measurement": "expression of Collagen I protein (WB)", "setting": "[1]", "value": "significantly inhibit"}, {"measurement": "expression of α-SMA protein (WB)", "setting": "[1]", "value": "significantly inhibit"}]}
{"smiles": "O=c1c(O)c(-c2cc(O)c(O)c(O)c2)oc2cc(O)cc(O)c12", "note": "[compound 18, Myricetin]", "values": [{"measurement": "activity of the NRK-49F cells (MTT)", "setting": "NRK-49F cells", "value": "significantly inhibit"}]}
